Data: patent publication US20030162762A1, “Novel cephalosporin compounds and process for preparing the same” (priority 2000, published 2003)
Values after ≈ are worked out from the molar mass of the structure shown.

Assays:
Assay in all cases: Minimum Inhibitory Concentration (MIC), agar dilution, standard strains
S. aureus 241 = format: cell-based, Staphylococcus aureus; conditions: Table 1, Mueller-Hinton agar, 37° C., 20 hours; for MIC: Staphylococcus aureus, 241, read-out: Minimum Inhibitory Concentration, S. aureus 241
Protocol: (§1) The effectiveness of the compound according to the present invention was determined by obtaining Minimum Inhibitory Concentration (MIC) of the compounds prepared by the above examples (Compounds I-1 to I-41) and vancomycin, which is the known compound having a potent activity against gram-positive strains, as the control drug against the standard strains. Specifically, Minimum Inhibitory Concentration was obtained by diluting the test compound according to a double dilution method, dispersing them in Mueller-Hinton agar medium, inoculating each of the test strain having 10^7 cfu (colony forming unit) per ml in an amount of 2 μl to the medium and then incubating them at 37° C. for 20 hours. From the result of Minimum Inhibitory Concentration test, it can be seen that the compound according to the present invention has a good activity against major pathogenic microorganisms, which cause hospital infection, including MRSA strains.

S. aureus 77 = format: cell-based, Staphylococcus aureus; conditions: Table 1, Mueller-Hinton agar, 37° C., 20 hours; for MIC: Staphylococcus aureus, 77, read-out: Minimum Inhibitory Concentration, S. aureus 77
Protocol: as §1

[1] = tested on: Staphylococcus aureus giorgio; format: cell-based; conditions: Table 1, Mueller-Hinton agar, 37° C., 20 hours; for MIC: Staphylococcus aureus, read-out: Minimum Inhibitory Concentration, Staphylococcus aureus giorgio
Protocol: as §1

E. faecalis L239 = format: cell-based; conditions: Table 1, Mueller-Hinton agar, 37° C., 20 hours; for MIC: Enterococcus faecalis, L239, read-out: Minimum Inhibitory Concentration, E. faecalis L239
Protocol: as §1

S. epidermidis R005 = format: cell-based; conditions: Table 1, Mueller-Hinton agar, 37° C., 20 hours; for MIC: Staphylococcus epidermidis, R005, read-out: Minimum Inhibitory Concentration, S. epidermidis R005
Protocol: as §1

Row | Molecule | Minimum Inhibitory Concentration, S. aureus 241 (S. aureus 241) [µg/mL] | Minimum Inhibitory Concentration, S. aureus 77 (S. aureus 77) [µg/mL] | Minimum Inhibitory Concentration, Staphylococcus aureus giorgio [1] [µg/mL] | Minimum Inhibitory Concentration, E. faecalis L239 (E. faecalis L239) [µg/mL] | Minimum Inhibitory Concentration, S. epidermidis R005 (S. epidermidis R005) [µg/mL] | MIC (S. aureus 241) [µg/mL] | MIC (S. aureus 77) [µg/mL] | MIC [1] [µg/mL] | MIC (E. faecalis L239) [µg/mL] | MIC (S. epidermidis R005) [µg/mL]
1 | 4,6-diamino-1-{(E)-3-[(6R,7R)-2-carboxy-7-({2-[(2,5-dichlorophenyl)sulfanyl]acetyl}amino)-8-oxo-5-thia-1-azabicyclo[4.2.0]oct-2-en-3-yl]-2-propenyl}-5-methylpyrimidin-1-ium [Compound I-40] | 8 | 1 | 0.016 | 2 | 0.25 |  |  |  |  | 
2 | 4-amino-1-{(E)-3-[(6R,7R)-2-carboxy-7-({2-[(2,5-dichlorophenyl)sulfanyl]acetyl}amino)-8-oxo-5-thia-1-azabicyclo[4.2.0]oct-2-en-3-yl]-2-propenyl}-2-methyl pyrimidin-1-ium [Compound I-39] | 2 | 0.25 | <0.008 | 0.5 | 0.063 |  |  |  |  | 
3 | Nc1nc(O)cc(SC/C=C/C2=C(C(=O)O)N3C(=O)[C@@H](NC(=O)CSc4cc(Cl)ccc4Cl)[C@H]3SC2)n1 [Compound I-1, (6R,7R)-3-{(E)-3-[(2-amino-6-hydroxy-4-pyrimidinyl)sulfanyl]-1-propenyl}-7-({2-[(2,5-dichlorophenyl)sulfanyl]acetyl}amino)-8-oxo-5-thia-1-azabicyclo[4.2.0]oct-2-ene-2-carboxylic acid] |  |  |  |  |  | 4 (≈ 6.66 µM) | 0.25 (≈ 0.416 µM) | < 0.008 | 0.25 (≈ 0.416 µM) | 0.13 (≈ 0.216 µM)
4 | Nc1cc[n+](C/C=C/C2=C(C(=O)O)N3C(=O)[C@@H](NC(=O)CSc4cc(Cl)ccc4Cl)[C@H]3SC2)cn1 [Compound I-2, 4-amino-1-{(E)-3-[(6R,7R)-2-carboxy-7-({2-[(2,5-dichlorophenyl)sulfanyl]acetyl}amino)-8-oxo-5-thia-1-azabicyclo[4.2.0]oct-2-en-3-yl]-2-propenyl}pyrimidin-1-ium] | 4 | 0.25 | <0.008 | 1 | 0.25 |  |  |  |  | 
5 | Nc1cc(SC/C=C/C2=C(C(=O)O)N3C(=O)[C@@H](NC(=O)CSc4cc(Cl)ccc4Cl)[C@H]3SC2)nc(N)n1 [Compound I-3, (6R,7R)-3-{(E)-3-[(2,6-diamino-4-pyrimidinyl)sulfanyl]-1-propenyl}-7-({2-[(2,5-dichlorophenyl)sulfanyl]acetyl}amino)-8-oxo-5-thia-1-azabicyclo[4.2.0]oct-2-ene-2-carboxylic acid] |  |  |  |  |  | 4 (≈ 6.67 µM) | 0.13 (≈ 0.217 µM) | < 0.008 | 0.5 (≈ 0.834 µM) | 0.13 (≈ 0.217 µM)
6 | Nc1cc[n+](N)c(SC/C=C/C2=C(C(=O)O)N3C(=O)[C@@H](NC(=O)CSc4cc(Cl)ccc4Cl)[C@H]3SC2)n1 [Compound I-4, 1,4-diamino-2-({(E)-3-[(6R,7R)-2-carboxy-7-({2-[(2,5-dichlorophenyl)sulfanyl]acetyl}amino)-8-oxo-5-thia-1-azabicyclo[4.2.0]oct-2-en-3-yl]-2-propenyl}sulfanyl) pyrimidin-1-ium] | 1 | 0.13 | <0.008 | 0.5 | 0.13 |  |  |  |  | 
7 | Nc1cc(SC/C=C/C2=C(C(=O)O)N3C(=O)[C@@H](NC(=O)CNc4cc(Cl)ccc4Cl)[C@H]3SC2)nc(N)n1 [Compound I-5] | 16 | 0.5 | 0.031 | 1 | 0.5 |  |  |  |  | 
8 | Nc1cc[n+](N)c(SCC2=C(C(=O)O)N3C(=O)[C@@H](NC(=O)CSc4cc(Cl)ccc4Cl)[C@H]3SC2)n1 [Compound I-6, 1,4-diamino-2-({[(6R,7R)-2-carboxy-7-({2-[(2,5-dichlorophenyl)sulfanyl]acetyl}amino)-8-oxo-5-thia-1-azabicyclo[4.2.0]oct-2-en-3-yl]methyl}sulfanyl)pyrimidin-1-ium] | 4 | 0.031 | <0.008 | 4 | 0.063 |  |  |  |  | 
9 | Nc1nc(SC/C=C/C2=C(C(=O)O)N3C(=O)[C@@H](NC(=O)CSc4cc(Cl)ccc4Cl)[C@H]3SC2)nc2c1CCC2 [Compound I-20, (6R,7R)-3-{(E)-3-[(4-amino-6,7-dihydro-5H-cyclopenta[d]pyrimidin-2-yl)sulfanyl]-1-propenyl}-7-({2-[(2,5-dichlorophenyl)sulfanyl]acetyl}amino)-8-oxo-5-thia-1-azabicyclo[4.2.0]oct-2-ene-2-carboxylic acid] |  |  |  |  |  | 32 (≈ 51.2 µM) | 2 (≈ 3.2 µM) | 0.063 (≈ 0.101 µM) | 2 (≈ 3.2 µM) | 2 (≈ 3.2 µM)
10 | Nc1nc(SC/C=C/C2=C(C(=O)O)N3C(=O)[C@@H](NC(=O)CSc4cc(Cl)ccc4Cl)[C@H]3SC2)c2c([n+]1N)CCC2 [Compound I-21] | 1 | 0.063 | <0.008 | 0.25 | 0.063 |  |  |  |  | 
11 | C[n+]1c(N)cc(SC/C=C/C2=C(C(=O)O)N3C(=O)[C@@H](NC(=O)CSc4cc(Cl)ccc4Cl)[C@H]3SC2)nc1N [Compound I-22, (6R,7R)-2,6-diamino-4-({(E)-3-[2-carboxy-7-({2-[(2,5-dichlorophenyl)sulfanyl]acetyl}amino)-8-oxo-5-thia-1-azabicyclo[4.2.0]oct-2-en-3-yl]-2-propenyl}sulfanyl)-1-methylpyrimidin-1-ium] | 1 | 0.063 | <0.008 | 0.25 | 0.063 |  |  |  |  | 
12 | CNCc1c(N)nc(SC/C=C/C2=C(C(=O)O)N3C(=O)[C@@H](NC(=O)CSc4cc(Cl)ccc4Cl)[C@H]3SC2)[n+](C)c1N [Compound I-23, (6R,7R)-4,6-diamino-2-({(E)-3-[2-carboxy-7-({2-[(2,5-dichlorophenyl)sulfanyl]acetyl}amino)-8-oxo-5-thia-1-azabicyclo[4.2.0]oct-2-en-3-yl]-2-propenyl}sulfanyl)-1-methyl-5-[(methylamino)methyl]pyrimidin-1-ium] | 4 | 0.25 | 0.016 | 1 | 0.25 |  |  |  |  | 
